Test systems include HCT-116 colon; SK-MEL-5 melanoma; HOP-62 NSCLC; SN12C renal; SF-539 CNS; SNB-75 CNS; ACHN renal; HOP-92 NSCLC; MDA-MB-231 breast; HT29 colon.
What all share (test): NCI-60 cell line screen, 48 h

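96-well plates; 48 h exposure; 5 concentrations. Endpoints by linear interpolation between flanking doses. Not reached: highest tested concentration assigned. GI50 = concentration required for 50% inhibition of growth. TGI denotes the concentration required for complete inhibition of growth.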 Where only a bound is given, the exact number is not on record here.

Take `C=C1C(=O)OC2CC(C)C3C=CC(=O)C3CC12` (stereo not given): the TGI with HCT-116 colon turned out to be 2.7 µM; in the assay with SK-MEL-5 melanoma it was 6.04 µM; in the assay with HOP-62 NSCLC, 31.8 µM; with SN12C renal, 5.19 µM; with SF-539 CNS it was 4.92 µM; in the assay on SNB-75 CNS, 18.5 µM. The TGI in the assay on ACHN renal amounted to 8.21 µM; with HOP-92 NSCLC, 4.04 µM; with MDA-MB-231 breast, 3.74 µM; with HT29 colon, 4.83 µM.
On to `CCOC(=O)c1cc(C(=O)c2cc(OC)c(OC)c(OC)c2)n2ccccc12`, for which the GI50 with HCT-116 colon is 0.0353 µM; with SK-MEL-5 melanoma it was 0.0409 µM; in the assay with HOP-62 NSCLC it was 0.241 µM; in the assay with SN12C renal, 1.17 µM; with SF-539 CNS it was 0.103 µM; in the assay with SNB-75 CNS, 0.0461 µM. Further, the GI50 was 10.1 µM in the assay on ACHN renal, 25.6 µM in the assay with HOP-92 NSCLC, 2.81 µM in the assay with MDA-MB-231 breast and 0.0425 µM in the assay with HT29 colon. Further, the TGI with HCT-116 colon was greater than 100 µM; in the assay with SK-MEL-5 melanoma, greater than 100 µM; with HOP-62 NSCLC, greater than 67.9 µM; in the assay on SN12C renal, greater than 100 µM; with SF-539 CNS, 0.863 µM; in the assay with SNB-75 CNS, 21.5 µM. Also, the TGI with ACHN renal, in the assay on HOP-92 NSCLC, in the assay on MDA-MB-231 breast and in the assay with HT29 colon was greater than 100 µM throughout.
In the case of `C=CC1=C(C)C2=NC1=CC1=NC(=CC3=C(C)C4=C(O)C(C(=O)OC)C(=C5NC(=C2)C(C)C5CCC(=O)OC)C4=N3)C(CC)=C1C` (stereo not given), the TGI with HCT-116 colon, with SK-MEL-5 melanoma, in the assay on HOP-62 NSCLC, in the assay with SN12C renal, in the assay on SF-539 CNS and in the assay with SNB-75 CNS was greater than 100 µM throughout. The TGI in the assay on ACHN renal, in the assay on HOP-92 NSCLC, in the assay with MDA-MB-231 breast and in the assay on HT29 colon was greater than 100 µM in each case.
In the case of `C=C1C(=O)O[C@H]2[C@H]1CC/C(Cn1cc(-c3cc(C)c(C)cc3C)nn1)=C\CC[C@@]1(C)O[C@@H]21`, the GI50 in the assay on HCT-116 colon is 0.336 µM; with SK-MEL-5 melanoma, 1.66 µM; with HOP-62 NSCLC, 1.77 µM; in the assay with SN12C renal it was 1.49 µM; with SF-539 CNS, 1.16 µM; in the assay with SNB-75 CNS, 0.521 µM. The GI50 was 1.07 µM with ACHN renal, 0.436 µM in the assay with HOP-92 NSCLC, 1.11 µM with MDA-MB-231 breast and 0.502 µM in the assay on HT29 colon. The TGI in the assay on HCT-116 colon is 1.06 µM; in the assay on SK-MEL-5 melanoma it was 3.12 µM; in the assay with HOP-62 NSCLC, 3.97 µM; with SN12C renal, 3.41 µM; in the assay with SF-539 CNS, 2.43 µM; with SNB-75 CNS, 8.45 µM. In addition, the TGI in the assay on ACHN renal is 2.34 µM; in the assay with HOP-92 NSCLC it was 1.68 µM; in the assay on MDA-MB-231 breast, 2.62 µM; with HT29 colon, 1.91 µM.
On to `COc1ccccc1-c1cc(=O)c2ccc(OC)c(OC)c2o1`, for which the TGI in the assay on HCT-116 colon, with SK-MEL-5 melanoma, in the assay with HOP-62 NSCLC, in the assay on SN12C renal, in the assay on SF-539 CNS and in the assay on SNB-75 CNS was greater than 100 µM throughout. In addition, the TGI in the assay on ACHN renal, in the assay with HOP-92 NSCLC, with MDA-MB-231 breast and in the assay with HT29 colon was greater than 100 µM in each case.
With `NC1=Nc2cc(OCCCN3Cc4ccccc4C3)c(OCC3CC3)cc2C12CCCC2`, the GI50 is 1.61 µM in the assay with HCT-116 colon; 1.67 µM in the assay with SK-MEL-5 melanoma; 3.45 µM in the assay on HOP-62 NSCLC; 3.85 µM with SN12C renal; 1.7 µM with SF-539 CNS; 1.07 µM in the assay with SNB-75 CNS. For the same compound, the GI50 in the assay with ACHN renal was 3.44 µM; in the assay on HOP-92 NSCLC, 0.718 µM; with MDA-MB-231 breast, 1.62 µM; in the assay on HT29 colon it was 1.95 µM. For the same compound, the TGI turned out to be 3.49 µM in the assay on HCT-116 colon; 3.04 µM in the assay with SK-MEL-5 melanoma; 11.5 µM in the assay on HOP-62 NSCLC; 15.2 µM in the assay with SN12C renal; 3.17 µM in the assay on SF-539 CNS; 7.97 µM with SNB-75 CNS. Also, the TGI with ACHN renal came to 11.9 µM; with HOP-92 NSCLC it was 3.14 µM; in the assay with MDA-MB-231 breast, 3.65 µM; in the assay with HT29 colon, 6.53 µM.
Take `Cc1c(N=Cc2ccc(N(CCC#N)CCC#N)cc2)c(=O)n(-c2ccccc2)n1C`: the TGI in the assay on HCT-116 colon was greater than 100 µM; in the assay with SK-MEL-5 melanoma, greater than 100 µM; in the assay with HOP-62 NSCLC, 86.1 µM; with SN12C renal, greater than 100 µM; in the assay with SF-539 CNS, 86.5 µM; in the assay with SNB-75 CNS, 60.1 µM. Also, the TGI with ACHN renal was 69.1 µM; with HOP-92 NSCLC, 99 µM; with MDA-MB-231 breast, greater than 100 µM; in the assay with HT29 colon it was greater than 100 µM.
On to `CC(C)Nc1ncc2cc(Oc3ccc(F)cc3F)c(=O)n(C)c2n1`, for which the GI50 in the assay with HCT-116 colon was greater than 25 µM; in the assay with SK-MEL-5 melanoma it was greater than 25 µM; in the assay on HOP-62 NSCLC, greater than 25 µM; in the assay on SN12C renal it was 21.4 µM; with SF-539 CNS, greater than 25 µM; with SNB-75 CNS, greater than 25 µM. The GI50 is greater than 25 µM in the assay with ACHN renal, 2.89 µM in the assay with HOP-92 NSCLC, 21 µM in the assay with MDA-MB-231 breast and greater than 25 µM in the assay with HT29 colon. The TGI in the assay on HCT-116 colon, in the assay with SK-MEL-5 melanoma, with HOP-62 NSCLC, with SN12C renal, in the assay with SF-539 CNS and in the assay with SNB-75 CNS was greater than 25 µM in each case. For the same compound, the TGI with ACHN renal is greater than 25 µM; in the assay on HOP-92 NSCLC, 21.6 µM; with MDA-MB-231 breast, greater than 25 µM; in the assay on HT29 colon it was greater than 25 µM.
As to `CCSc1nnc(-c2ccc3ccccc3c2O)n1-c1ccc(Cl)cc1`, the GI50 in the assay on HCT-116 colon is 4 µM; with SK-MEL-5 melanoma it was 6.01 µM; in the assay with HOP-62 NSCLC it was 22.1 µM; in the assay with SN12C renal it was greater than 100 µM; in the assay with SF-539 CNS, greater than 100 µM; in the assay with SNB-75 CNS, 65.1 µM. For the same compound, the GI50 with ACHN renal is 4.99 µM; in the assay with HOP-92 NSCLC, 9.23 µM; in the assay with MDA-MB-231 breast it was greater than 100 µM; with HT29 colon, 16 µM. Moreover, the TGI with HCT-116 colon, in the assay with SK-MEL-5 melanoma, in the assay with HOP-62 NSCLC, in the assay on SN12C renal, in the assay on SF-539 CNS and in the assay on SNB-75 CNS was greater than 100 µM throughout. Further, the TGI in the assay with ACHN renal, in the assay with HOP-92 NSCLC, in the assay with MDA-MB-231 breast and in the assay with HT29 colon was greater than 100 µM each time.

(Values after PubChem BioAssay (NCI).)
